pIC50: −log10 of the molar value. Read-outs that look alike come from different tables or passages of the source.
Legend:
Format in all cases: cell-based
PC-3 cells = experiment: modified MTT method, proliferation of PC-3 cells; conditions: Homo sapiens, read-out: IC50 on the growth of PC-3 cells
Description: (§1) Five test concentrations 2, 10, 50, 250 and 500 µM were set for each of five derivatives of artemisinin, artemether drug substance, artemisinin, dihydroartemisinin, artesunate were dissolved with dimethyl sulfoxide (DMSO), while the lyophilized powder of artemether was dissolved with normal saline (N.S.), followed by addition of a certain amount of RPMI 1640 complete culture solution to formulate a high-concentration solution, and each of the low-concentration solutions was formulated by proportionate dilution from the high-concentration solution.
(§2) The concentrations of DMSO contained in the solutions at the two relatively high concentrations 500 and 250 µM for the artemether drug substance, artemisinin, dihydroartemisinin, artesunate, used as solvent controls, were formulated with […] culture solution, at which time the test concentrations of DMSO were 1% and 0.5%. The concentrations of the excipients contained in the solutions at the two relatively high concentrations 500 and 250 µM for the preparation of lyophilized powder of artemether were used as solvent controls.
(§3) The positive control was an anti-cancer drug adriamycin (ADM), which was set at three test concentrations (final concentrations) of 0.1, 1 and 10 µg/ml. To ADM stock solution (1 mg/ml) a certain amount of PRMI 1640 complete culture solution was added, to formulate a high-concentration solution, and each of the low-concentration solutions were formulated by proportionate dilutions from the high-concentration solution.
(§4) HL-60: (human promyelocytic leukemia cell line); K562 (human chronic myelocytic leukemia cell line); HT-29 (human colon cancer cell line); PC-3 (human prostate cancer cell line); A549 (human non-small cell lung cancer cell line); MKN-28 (human gastric cancer cell line); Hep2 (human laryngeal cancer cell line), all of which were purchased from Cell Bank of Shanghai Institutes for Biological Sciences, the Chinese Academy of Sciences.
(§5) Influence of the five test samples on the proliferation of 7 human tumor cell lines was determined via a modified MTT method.
(§6) Cells in logarithmic growth phase were taken, adjusted to a certain concentration and then added into a 96 well culture plate. After culture of adherent cells for a period until adherence, the test samples were added; and for suspension cells, the test samples were added after inoculation. 5 test concentrations 2, 10, 50, 250 and 500 µM were set, with 3 parallel wells for each concentration, 10 µl/well; the solvent controls were 0.5% and 1% of isovolumetric DMSO, and the positive controls was ADM at 3 concentrations 0.1, 1 and 10 µg/ml. The samples were loaded followed by culture for a period of time in an incubator at 37°C, 5% CO2, followed by addition of MTT (5 mg/ml) at 20 µl/well, and continued to be cultured for a period of time and added with a three-combined solution [10% SDS - 5% isobutanol - 0.012 mol/L HCl (W/V/V)]. After dissolving in uniformity, it was continued to be placed in the incubator at 37°C, 5% CO2 for a period of time, and the OD value of each well was determined under a wavelength of 570 nm with a microplate reader, according to which the results were calculated.
(§7) The cellular proliferation inhibition rate was calculated in accordance with the following equation: Inhibition rate (%) = (OD valuecontrol well-OD valuesample well)/OD valuecontrol well × 100% [formula]
(§8) When the inhibition rate of DMSO on cells was more than 15%, calculation was carried out using the following equation: Inhibition rate (%) = (OD valuesolvent group-OD valueadministered well)/OD valuesolvent group × 100% [formula]
(§9) The inhibition rate was calculated by using Microsoft Excel 2003, and median inhibitory concentration IC50 was calculated with a LOGIT method, which was used as an indicator for judging the inhibitory capability.

Hep2 cells = experiment: modified MTT method, proliferation of Hep2 cells; conditions: Homo sapiens, HEp-2, 72 h, secondary screening
Description: as §1, §2, §3, §4, §5, §6, §7, §8, §9
(§10) According to the results of preliminary screening, further experiments were adjusted such that more sensitive cell lines were screened out. […]

MKN-28 cells = experiment: modified MTT method, proliferation of MKN-28 cells; conditions: Homo sapiens, MKN-28, 72 h, secondary screening
Description: as §1, §2, §3, §4, §5, §6, §7, §8, §9, §10

K562 cells = experiment: modified MTT method, proliferation of K562 cells; conditions: Homo sapiens, read-out: IC50 on the growth of K562 cells
Description: as §1, §2, §3, §4, §5, §6, §7, §8, §9

HL-60 cells = experiment: modified MTT method, proliferation of HL-60 cells; conditions: Homo sapiens, read-out: IC50 on the growth of HL-60 cells
Description: as §1, §2, §3, §4, §5, §6, §7, §8, §9

A549 cells = experiment: modified MTT method, proliferation of A549 cells; conditions: Homo sapiens, read-out: IC50 on the growth of A549 cells
Description: as §1, §2, §3, §4, §5, §6, §7, §8, §9

HT-29 cells = experiment: modified MTT method, proliferation of HT-29 cells; conditions: Homo sapiens
Description: as §1, §2, §3, §4, §5, §6, §7, §8, §9, §10

Question: Which results are given for `COc1cccc2c1C(=O)c1c(O)c3c(c(O)c1C2=O)C[C@@](O)(C(=O)CO)C[C@@H]3O[C@H]1C[C@H](N)[C@H](O)[C@H](C)O1` [ADM, adriamycin]?
Answer: pIC50 (PC-3 cells; PC-3, 24 h, Batch 1, 24 h): 4.48; pIC50 (PC-3 cells; PC-3, 24 h, Batch 2, 24 h): 4.32; pIC50 (PC-3 cells; PC-3, 48 h, Batch 1, 48 h): 5.12; pIC50 (PC-3 cells; PC-3, 48 h, Batch 2, 48 h): 5.02; pIC50 (PC-3 cells; PC-3, 72 h, Batch 1, 72 h): 5.50; pIC50 (PC-3 cells; PC-3, 72 h, Batch 2, 72 h): 5.43; pIC50 (Hep2 cells; Batch 1, read-out: IC50 on the growth of Hep2 cells (72 h)): 6.39; pIC50 (Hep2 cells; Batch 2, read-out: IC50 on the growth of Hep2 cells (72 h)): 6.59; pIC50 (Hep2 cells; Batch 3, read-out: IC50 on the growth of Hep2 cells (72 h)): 6.00; pIC50 (Hep2 cells; average, read-out: IC50 on the growth of Hep2 cells (72 h)): 6.29; pIC50 (MKN-28 cells; Average, read-out: IC50 on the growth of MKN-28 cells (72 h)): 6.29; pIC50 (MKN-28 cells; Batch 1, read-out: IC50 on the growth of MKN-28 cells (72 h)): 6.28; pIC50 (MKN-28 cells; Batch 2, read-out: IC50 on the growth of MKN-28 cells (72 h)): 6.28; pIC50 (MKN-28 cells; Batch 3, read-out: IC50 on the growth of MKN-28 cells (72 h)): 6.33; pIC50 (K562 cells; K562, 24 h, Batch 1, 24 h): 5.15; pIC50 (K562 cells; K562, 24 h, Batch 2, 24 h): 5.24; pIC50 (K562 cells; K562, 24 h, Batch 3, 24 h): 5.59; pIC50 (K562 cells; K562, 48 h, Batch 1, 48 h): 5.72; pIC50 (K562 cells; K562, 48 h, Batch 2, 48 h): 6.62; pIC50 (K562 cells; K562, 48 h, Batch 3, 48 h): 5.77; pIC50 (K562 cells; K562, 72 h, Batch 1, 72 h): 6.77; pIC50 (K562 cells; K562, 72 h, Batch 2, 72 h): 8.00; pIC50 (K562 cells; K562, 72 h, Batch 3, 72 h): 6.13; pIC50 (HL-60 cells; HL-60, 24 h, Batch 1, 24 h): 5.03; pIC50 (HL-60 cells; HL-60, 24 h, Batch 2, 24 h): 5.38; pIC50 (HL-60 cells; HL-60, 48 h, Batch 1, 48 h): 5.76; pIC50 (HL-60 cells; HL-60, 48 h, Batch 2, 48 h): 6.80; pIC50 (HL-60 cells; HL-60, 72 h, Batch 1, 72 h): 6.11; pIC50 (HL-60 cells; HL-60, 72 h, Batch 2, 72 h): 6.24; pIC50 (A549 cells; A549, 24 h, Batch 1, 24 h): 4.41; pIC50 (A549 cells; A549, 24 h, Batch 2, 24 h): < 4.00; pIC50 (A549 cells; A549, 48 h, Batch 1, 48 h): 4.97; pIC50 (A549 cells; A549, 48 h, Batch 2, 48 h): 6.21; pIC50 (A549 cells; A549, 72 h, Batch 1, 72 h): 6.12; pIC50 (A549 cells; A549, 72 h, Batch 2, 72 h): 6.72; pIC50 (HT-29 cells; HT-29, 24 h, preliminary screening, Batch 1, 24 h, read-out: IC50 on the growth of HT-29 cells): 5.64; pIC50 (HT-29 cells; HT-29, 24 h, preliminary screening, Batch 2, 24 h, read-out: IC50 on the growth of HT-29 cells): 5.42; pIC50 (HT-29 cells; HT-29, 48 h, preliminary screening, Batch 1, 48 h, read-out: IC50 on the growth of HT-29 cells): 6.55; pIC50 (HT-29 cells; HT-29, 48 h, preliminary screening, Batch 2, 48 h, read-out: IC50 on the growth of HT-29 cells): 6.23; pIC50 (HT-29 cells; HT-29, 72 h, preliminary screening, Batch 1, 72 h, read-out: IC50 on the growth of HT-29 cells): 7.24; pIC50 (HT-29 cells; HT-29, 72 h, preliminary screening, Batch 2, 72 h, read-out: IC50 on the growth of HT-29 cells): 6.96; pIC50 (HT-29 cells; HT-29, 72 h, secondary screening, 72 h, Batch 1, read-out: IC50 on the growth of HT-29 cells (72 h)): 6.96; pIC50 (HT-29 cells; HT-29, 72 h, secondary screening, 72 h, Batch 2, read-out: IC50 on the growth of HT-29 cells (72 h)): 6.72; pIC50 (HT-29 cells; HT-29, 72 h, secondary screening, 72 h, Batch 3, read-out: IC50 on the growth of HT-29 cells (72 h)): 6.92; pIC50 (HT-29 cells; HT-29, 72 h, secondary screening, 72 h, average, read-out: IC50 on the growth of HT-29 cells (72 h)): 6.96

Source: patent publication EP2926811A1, “ARTEMETHER-CONTAINING PHARMACEUTICAL COMPOSITION, PREPARATION, AND USE THEREOF” (Kunming Pharmaceutical Corp., priority 2012, dated 2014)
